# “Also recorded” adds a separate entry of the source.
# Legend:
# B. subtilis 3610 = experiment: Pellicle assay (floating biofilm formation in MSgg medium); type: cell-based, Bacillus subtilis; settings: for biofilm formation (promotion/induction/enhancement): B. subtilis 3610, 1 μM of the natural compound, compared with not treated; for pellicle formation (inhibition): B. subtilis, 1 μM
# Description: B. subtilis, NCBI 3610 (hereafter referred to as “3610”), forms robust and highly structured biofilms in liquid medium. When inoculated into a standing culture of minimal medium, 3610 initially grows planktonically as motile, single cells. The cells then migrate to the air-liquid interface, where they proliferate as long chains of non-motile cells. These chains are highly ordered in parallel patterns and are bound together tightly, presumably by an extracellular matrix (ECM), to form a floating biofilm (pellicle). Growth of the bundled chains continues, giving rise to larger biofilm structures that include the fruiting bodies. Thus, we consider pellicles as a highly robust setting for the study of B. subtilis biofilms
# Two different assays were used to screen a natural compounds library (AnalytiCon Discovery GmbH Germany (http://www.ac-discovery.com/) for biofilm formation. A Petri Assay was used to observed changes in structure and size of biofilms, while a Pellicle Assay was used to study biofilm inhibitors and biofilm induction (FIG. 1).
# The protocol for the pellicle essay comprised the following steps:
# A 2× solution of rich, defined biofilm-inducing MSgg medium (Branda, S. S., Gonzalez-Pastor, J. E., Ben-Yehuda, S., Losick, R. & Kolter, R. Fruiting body formation by Bacillus subtilis. Proceedings of the National Academy of Sciences of the United States of America 98, 11621-11626, doi:10.1073/pnas.191384198 (2001)), without the calcium chloride and iron(III) chloride hexahydrate was prepared. After filter sterilization, the calcium chloride was added. The medium was ready to use directly or it could be stored at 4° C. in the dark.
# A 1× dilution medium was prepared on the day of the experiment. The 2× MSgg medium was diluted to 1× with sterile distilled water (pellicles) or sterile 3% hot (80° C.) agar (biofilms) and iron(III) chloride hexahydrate added to a final concentration of 50 μM (pellicles) or […] (biofilms). Molecules for screening were then added.
# Compared to the original MSgg recipe (Branda, S. S., et al. (2001) ibid), the medium used contained 50 μg/ml threonine and the iron concentration to grow biofilm colonies on solid MSgg medium was increased 2.5× to optimize the wrinkled colony morphology. After solidification of the agar, dry the solid MSgg plates in a biological hood for 30-45 min prior to the inoculation.
# The next step was to streak out B. subtilis from a −80° C. stock (a LB culture of 10^9 cells/ml frozen in 20% glycerol) to isolate single colonies on a LB-1.5% agar plate with a sterile tip or applicator stick. Cultures were grown overnight at 30° C.
# Following this, a single colony was picked from the LB-1.5% agar plate for growth in 3 ml LB broth at 37° C. for 4 hours in a shaking incubator (shaking speed 200 rpm) The LB broth was replaced with biofilm-inducing MSgg medium prior to inoculation by centrifuging 1 ml starter culture for 3 min at 6000 g, carefully removing the supernatant and re-suspending the pellet in 1 ml MSgg medium. The rest of the culture can be discharged.
# During the growth of the starter culture, a 12-well cell-culture multidish plate containing 3 ml of MSgg medium without or with a concentration range of the small molecules (natural products to be tested) was prepared. To rule out edge effects, the location of the different concentrations was distributed across the multidish plate. Alternatively, use 24-well cell-culture multidish plates containing 1.5 ml of MSgg medium was used.
# The wells of the 12-well cell-culture multidish plate were inoculated with […] of the washed starter culture (1:1000 dilution). In certain embodiments, a lower dilution ratio, i.e. 1:500 could be used. This decreases the development time of the pellicles.
# Grow the pellicles at 23° C. was under static conditions for three days. The pellicles were no moved during this time, as it could affect the final surface morphology of the pellicle.
# Pictures of the pellicles were taken with a high resolution camera. […]
# tapA-sipW-tasA operon = experiment: tapA-sipW-tasA transcription, PtapA-gfp reporter; type: cell-based, Bacillus subtilis; settings: B. subtilis; matrix genes (sinI, tapA reporters); 1 μM
# Description: (§1) Planktonic growth, attachment to surfaces, induction of extracellular matrix genes tapA-sipW-tasA operon sinI regulator involved in biofilm formation, and biofilm development was measured and compared amongst the natural compounds identified by the screen. For the analysis for enhancement of biofilm formation and transcription of matrix genes 1 uM aqueous solutions comprising each natural compound were tested.
# (§2) Gene expression: Gene expression was measure using reporter genes (luciferase or green fluorescent protein) Luminescence of a strains harboring sacA: PsinI-luciferase was measure in the presence or absence of 1 μM of the natural compounds presented in FIGS. 2A and 2B. Fluorescence of a strain harboring sacA::PtapA-gfp was measured in presence or absence of 1 μM of the natural compounds shown in FIGS. 2A and 2B. Results are a representative of six independent experiments; the SD represents an average of 5 wells.
# (§3) The expression of SinI, the matrix regulator, was measured as was the expression of tapA-sipW-tasA operon, in the absence and presence of the natural compounds listed in FIG. 2B. Specifically, sinI transcription was monitored. SinI transcription is a direct readout for the activity of the genetic pathway resulting in matrix production and biofilm formation. sinI transcription in biofilm-inducing medium was monitored using the sinI promoter fused to luciferase.
# sinI = sinI transcription, sinI promoter fused to luciferase reporter; type: cell-based, Bacillus subtilis; settings: 1 μM; PsinI-luciferase, luminescence divided by OD600
# Description: as §1, §2, §3
# B. subtilis = experiment: Planktonic growth; type: cell-based, Bacillus subtilis; settings: 1 μM
# Description: as §1
# P. sytingae pv tomato = experiment: Submerged biofilm formation, crystal violet staining of attached cells; type: cell-based
# Description: Similar to Example 1, a Pellicle Assay was used to study biofilm inhibitors (FIG. 1). Analysis of submerged biofilm formation by P. sytingae pv tomato included staining attached cells with crystal violet and quantified as known in the art (Mol Microbiology 28:449-461).
Compound,biofilm formation (promotion/induction/enhancement) (B. subtilis 3610),transcription expression of matrix genes (tapA-sipW-tasA operon),transcription of sinI (sinI),pellicle formation (inhibition) (B. subtilis 3610),effect on planktonic growth (B. subtilis),attachment in the plant pathogen (inhibition) (P. sytingae pv tomato)
"COc1cc2oc(-c3ccc(O)c(O)c3)c(OC)c(=O)c2c(O)c1OC [2-(3,4-dihydroxyphenyl)-5-hydroxy-3,6,7-trimethoxy-4H-chromen-4-one]","enhance biofilm formation; also recorded: promoted, induced, and enhanced",enhance transcription expression of matrix genes,significantly enhanced,,,
"C=C[C@H]1[C@H](OC2OC(CO)C(O)C(O)C2O)OC=C(C(=O)OC)[C@H]1CCOC(=O)c1cc(O)c(O)c(O)c1 (stereo partly drawn) [cornuside, (2S,3R,4S)-methyl 2-((3,4,5-trihydroxy-6-(hydroxymethyl)tetrahydro-2H-pyran-2-yl)oxy)-4-(2-((3,4,5-trihydroxybenzoyl)oxy)ethyl)-3-vinyl-3,4-dihydro-2H-pyran-5-carboxylate]","enhance biofilm formation; also recorded: promoted, induced, and enhanced",enhance transcription expression of matrix genes,significantly enhanced,,,
"COc1cc(-c2cc(=O)c3c(O)c(OC)c(OC)c(O)c3o2)ccc1O [isothymonin, 5,8-dihydroxy-2-(4-hydroxy-3-methoxyphenyl)-6,7-dimethoxy-4H-chromen-4-one]","enhance biofilm formation; also recorded: promoted, induced, and enhanced",enhance transcription expression of matrix genes,significantly enhanced,,,
eupahakonenin B,,,,blocked pellicle formation,inert to planktonic growth,
"COc1cc(O)c2c(=O)c(O[C@@H]3O[C@H](CO)[C@@H](O)[C@H](O)[C@H]3O[C@@H]3O[C@H](CO)[C@@H](O)[C@H](O)[C@H]3O)c(-c3ccc(O)c(O)c3)oc2c1 [3-(((2S,3R,4S,5S,6R)-4,5-dihydroxy-6-(hydroxymethyl)-3-(((2S,3R,4S,5S,6R)-3,4,5-trihydroxy-6-(hydroxymethyl)tetrahydro-2H-pyran-2-yl)oxy)tetrahydro-2H-pyran-2-yl)oxy)-2-(3,4-dihydroxyphenyl)-5-hydroxy-7-methoxy-4H-chromen-4-one]","enhance biofilm formation; also recorded: promoted, induced, and enhanced",enhance transcription expression of matrix genes,significantly enhanced,,,
"CCCCCc1cc(O)c(C/C=C(\C)CCC=C(C)C)c(O)c1 [(E)-2-(3,7-dimethylocta-2,6-dien-1-yl)-5-pentylbenzene-1,3-diol]",,,,blocked pellicle formation; also recorded: mildly inhibited,inert to planktonic growth,strongly inhibited attachment

# From patent US20200367493A1, “BIOCONTROL ENHANCERS” (YEDA RESEARCH AND DEVELOPMENT CO. LTD., priority 2016, published 2020)
